For 39 sequences, target mRNA inhibition results are on record in the OligoGym collection.

Where “and” joins values, the source holds several entries; their conditions need not be identical. Equal entries are not always repeated. After the bases stand the sugars from the 5' end (letter, count) and the backbone: PS all phosphorothioate, else s phosphorothioate and o phosphodiester by linkage. Methylation of C is not given here. e = 2'-O-(2-methoxyethyl) (MOE); k = constrained ethyl (cEt); d = 2'-deoxy (DNA)

In this data set the target is IRF4. The note with it: ASO.

In the case of CGCGGAGGACCTCGCC (sugars k3 d10 k3, PS), the target mRNA inhibition (MM.1R, 1 µM) was -7%.

Take ACTCAGCAAGTGTCTT (sugars k3 d10 k3, PS): under “SK-MEL-28, 4 µM”, the target mRNA inhibition stood at 47%.

As to AATGCACCTGGGAGAC (sugars k3 d10 k3, PS), the target mRNA inhibition (SK-MEL-28, 4 µM) came out at 62%.

As to TTGCTCTTGTTCAAAG (sugars k3 d10 k3, PS), the target mRNA inhibition (SK-MEL-28, 4 µM) is 29%.

Regarding CCCCATATACATTGAG (sugars k3 d10 k3, PS), for the setting “SK-MEL-28, 4 µM”, the target mRNA inhibition came out at 37%.

For CCAGGATTCGCCATGG (sugars k3 d10 k3, PS), the target mRNA inhibition (MM.1R, 1 µM) was found to be 13%.

In the case of GATAACCTGAACATGA (sugars k3 d10 k3, PS), where the note is “SK-MEL-28, 4 µM”, the target mRNA inhibition came to 17%.

TGGCCACAGAGGACTT (sugars k3 d10 k3, PS): the target mRNA inhibition (SK-MEL-28, 4 µM) was 33%.

Regarding AAGTCATTGCTCTTGT (sugars k4 d8 k4, PS), the target mRNA inhibition (SK-MEL-28, 4 µM) came out at 28%.

In the case of GCCCCGAATAGGACCC (sugars k3 d10 k3, PS), the target mRNA inhibition (SK-MEL-28, 4 µM) was determined as 21%.

For CATTTCATTTAATGTC (sugars k3 d10 k3, PS), for the setting “SK-MEL-28, 4 µM”, the target mRNA inhibition amounted to 33%.

Take TTCATGTAAAGTCTGC (sugars k3 d10 k3, PS): where the note is “MM.1R, 1 µM”, the target mRNA inhibition was 57% and 55%.

As for GGCTCCCTCAGGAACA (sugars k3 d10 k3, PS), the target mRNA inhibition (SK-MEL-28, 4 µM) came to 19%.

On to GTGGACACTTTTAGAG (sugars k3 d10 k3, PS), for which, under “SK-MEL-28, 4 µM”, the target mRNA inhibition came to 52%.

Regarding GATGAGGGACCAGAAC (sugars k3 d10 k3, PS), the target mRNA inhibition (SK-MEL-28, 4 µM) was found to be 20%.

As to “ACGTGTGCTTGCCAAG (sugars kkdddddddddkekek, PS)”, the target mRNA inhibition (MM.1R, 1 µM) is 49% and 44%.

For CTGTAGGGCGACTAAC (sugars k3 d10 k3, PS), the target mRNA inhibition (SK-MEL-28, 4 µM) is 49%.

“TGATGTGATAGCTGAG (sugars kdddddddddkekeke, PS)”: the target mRNA inhibition (MM.1R, 1 µM) came to 47%.

In the case of CAGAATGTTTCGACAT (sugars k3 d10 k3, PS), the target mRNA inhibition (MM.1R, 1 µM) worked out at 14%.

Turning to TTATGGACCACGCAGC (sugars k3 d10 k3, PS), the target mRNA inhibition (SK-MEL-28, 4 µM) is 31%.

Regarding AGCTAAACTCCTAAGT (sugars k3 d10 k3, PS), under “SK-MEL-28, 4 µM”, the target mRNA inhibition stood at 15%.

Regarding ATCAGATTGAATCCAT (sugars k3 d10 k3, PS), the target mRNA inhibition (MM.1R, 1 µM) came out at 23%.

Turning to “TGCTTGAGGTTTTCCT (sugars kkdddddddddkdkdk, PS)”, the target mRNA inhibition (MM.1R, 1 µM) stood at 45%.

For CATCCTGCTTCCAGTG (sugars k3 d10 k3, PS), the target mRNA inhibition (SK-MEL-28, 4 µM) is 30%.

As to CTATAGTGTTCCAGGA (sugars k3 d10 k3, PS), the target mRNA inhibition (SK-MEL-28, 4 µM) was 66%.

Turning to “TCAGTTTGTGAAGCAT (sugars kdddddddddkekeke, PS)”, where the note is “MM.1R, 1 µM”, the target mRNA inhibition amounted to 9%.

As to CGAGAAGAGAGGCTGA (sugars k3 d10 k3, PS), where the note is “SK-MEL-28, 4 µM”, the target mRNA inhibition was found to be 7%.

For CTTAATTCTGGGTTAA (sugars k3 d10 k3, PS), under “SK-MEL-28, 4 µM”, the target mRNA inhibition was determined as 53%.

Take CCAAGCCTAGAGGTGC (sugars k3 d10 k3, PS): under “MM.1R, 1 µM”, the target mRNA inhibition came out at 21%.

GCGAAGAATTTTAGCA (sugars k3 d10 k3, PS): the target mRNA inhibition (SK-MEL-28, 4 µM) was determined as 12%.

For the sequence “AAGCATTTTATCATCC (sugars kddddddddddkekek, PS)”, the target mRNA inhibition (MM.1R, 1 µM) came to 14%.

For the sequence GTAATCTTCTGGATTG (sugars k3 d10 k3, PS), where the note is “SK-MEL-28, 4 µM”, the target mRNA inhibition was 29%.

With CTCCACTGTTAAAGCA (sugars k3 d10 k3, PS), for the setting “SK-MEL-28, 4 µM”, the target mRNA inhibition was determined as 52%.

On to GGTCTGGAAACTCCTC (sugars k4 d8 k4, PS), for which, for the setting “SK-MEL-28, 4 µM”, the target mRNA inhibition worked out at 31%.

As to AACGAGTTGACACAGG (sugars k3 d10 k3, PS), the target mRNA inhibition (SK-MEL-28, 4 µM) was found to be 55%.

In the case of “AGTATGAGAAACGGCC (sugars k3 d9 k3 e1, PS)”, the target mRNA inhibition (MM.1R, 1 µM) stood at 7%.

As to AAGCACTGGCATCGAG (sugars k3 d10 k3, PS), the target mRNA inhibition (SK-MEL-28, 4 µM) came out at 27%.

GTGCTCATGGCTGATA (sugars k3 d10 k3, PS): the target mRNA inhibition (MM.1R, 1 µM) came out at 24%.

CTGAGAGCCGAGGCCT (sugars k3 d10 k3, PS): the target mRNA inhibition (SK-MEL-28, 4 µM) was -17%.
